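Following 48 hours of exposure in 96-well plates, responses at five concentrations were used to interpolate endpoints linearly. At the GI50, growth is halved.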 Active and inactive are the calls of the source. Rule as the data show it: active = GI50 up to about 1.1 µM and inactive = higher.
How the values were obtained:
Assay in all cases: inhibition of tumour cell growth, NCI panel, 48 h
MOLT-4 = tested on: MOLT-4
SN12C = tested on: SN12C
HOP-62 = tested on: HOP-62
IGROV-1 = tested on: IGROV-1
PC-3 = tested on: PC-3
SW-620 = tested on: SW-620
Malme-3M = tested on: Malme-3M
HCT-116 = tested on: HCT-116
A549 = tested on: A549
K562 = tested on: K562
SF-539 = tested on: SF-539
Hs-578T = tested on: Hs-578T
HCC 2998 = tested on: HCC 2998
RXF 393 = tested on: RXF 393
NCI-H460 = tested on: NCI-H460
NCI-H23 = tested on: NCI-H23
SF-268 = tested on: SF-268
KM12 = tested on: KM12
EKVX = tested on: EKVX
MDA-MB-231 = tested on: MDA-MB-231

Structure (SMILES) | GI50 (MOLT-4) | GI50 (SN12C) | GI50 (HOP-62) | GI50 (IGROV-1) | GI50 (PC-3) | GI50 (SW-620) | GI50 (Malme-3M) | GI50 (HCT-116) | GI50 (A549) | GI50 (K562) | GI50 (SF-539) | GI50 (Hs-578T) | GI50 (HCC 2998) | GI50 (RXF 393) | GI50 (NCI-H460) | GI50 (NCI-H23) | GI50 (SF-268) | GI50 (KM12) | GI50 (EKVX) | GI50 (MDA-MB-231)
O=C(C1OC1c1cccc([N+](=O)[O-])c1)C12CC3CC(CC(C3)C1)C2 (stereo not given) | 2.82 µM (inactive) | 4.2 µM (inactive) | 10.7 µM (inactive) | 6.53 µM (inactive) | 5.5 µM (inactive) | 2.97 µM (inactive) | 13.7 µM (inactive) | 2.14 µM (inactive) | 12.9 µM (inactive) | 2.58 µM (inactive) | 8.79 µM (inactive) | 3.66 µM (inactive) | 6.73 µM (inactive) | 5.33 µM (inactive) | 4.06 µM (inactive) | 5.74 µM (inactive) | 2.63 µM (inactive) | 3.78 µM (inactive) | 13.2 µM (inactive) | 4.83 µM (inactive)
C=CCNC(=S)N/C=C(\C(=O)OCC)C(=O)C(=O)OCC | > 100 µM (inactive) | > 100 µM (inactive) | > 100 µM (inactive) | > 100 µM (inactive) | > 100 µM (inactive) | > 100 µM (inactive) | > 100 µM (inactive) | > 100 µM (inactive) | > 100 µM (inactive) | > 100 µM (inactive) | > 100 µM (inactive) | > 100 µM (inactive) | > 100 µM (inactive) | > 100 µM (inactive) | > 100 µM (inactive) | > 100 µM (inactive) | > 100 µM (inactive) | > 100 µM (inactive) | > 100 µM (inactive) | > 100 µM (inactive)
CCOC(=O)NC(Nc1ccc([N+](=O)[O-])cc1)(C(F)(F)F)C(F)(F)F | 54.2 µM (inactive) | > 100 µM (inactive) | > 100 µM (inactive) | 70.5 µM (inactive) | 53.1 µM (inactive) | > 100 µM (inactive) | > 100 µM (inactive) | 59.8 µM (inactive) | 45 µM (inactive) | 53.8 µM (inactive) | > 100 µM (inactive) | 33.9 µM (inactive) | > 100 µM (inactive) | 12 µM (inactive) | 40.9 µM (inactive) | > 100 µM (inactive) | > 100 µM (inactive) | 82.2 µM (inactive) | 75.5 µM (inactive) | 94.2 µM (inactive)
CC(=O)NC1C(OCc2ccccc2)OC(CO)C(O)C1OCC(=O)NC(C)C(=O)NC(CCC(=O)Nc1ccc2c(c1)CN1C(=O)c3ccccc3C1=N2)C(N)=O (stereo not given) | 89.1 µM (inactive) | > 100 µM (inactive) | > 100 µM (inactive) | > 100 µM (inactive) | > 100 µM (inactive) | > 100 µM (inactive) | > 100 µM (inactive) | > 100 µM (inactive) | > 100 µM (inactive) | > 100 µM (inactive) | > 100 µM (inactive) | > 100 µM (inactive) | > 100 µM (inactive) | > 100 µM (inactive) | > 100 µM (inactive) | > 100 µM (inactive) | > 100 µM (inactive) | > 100 µM (inactive) | > 100 µM (inactive) | > 100 µM (inactive)
Oc1cc(Br)cc2cc(Cl)cnc12 | 1.55 µM (inactive) | 3.13 µM (inactive) | 4.84 µM (inactive) | 1.26 µM (inactive) | 3.59 µM (inactive) | 2.83 µM (inactive) | 2.52 µM (inactive) | 1.66 µM (inactive) | 2.06 µM (inactive) | 0.627 µM (active) | 3.19 µM (inactive) | 0.845 µM (active) | 17.8 µM (inactive) | 1.95 µM (inactive) | 1.09 µM (active) | 5.47 µM (inactive) | 0.893 µM (active) | 4.06 µM (inactive) | 3.99 µM (inactive) | 20.8 µM (inactive)
COc1cc2c(SCCN(C)C)nc3ccccc3c2c2ccccc12 | 1.54 µM (inactive) | 2.52 µM (inactive) | 1.79 µM (inactive) | 1.3 µM (inactive) | 2.22 µM (inactive) | 1.74 µM (inactive) | 1.82 µM (inactive) | 1.67 µM (inactive) | 1.77 µM (inactive) | 1.72 µM (inactive) | 1.74 µM (inactive) | 2.13 µM (inactive) | 1.47 µM (inactive) | 1.93 µM (inactive) | 1.68 µM (inactive) | 5.46 µM (inactive) | 2.04 µM (inactive) | 1.56 µM (inactive) | 1.67 µM (inactive) | 2.25 µM (inactive)
CCOC(=O)Nc1cc2c(c(N)n1)N=C(c1ccccc1)CN2 | < 0.01 µM (active) | < 0.01 µM (active) | < 0.01 µM (active) | < 0.01 µM (active) | < 0.01 µM (active) | < 0.01 µM (active) | 16.4 µM (inactive) | < 0.01 µM (active) | < 0.01 µM (active) | < 0.01 µM (active) | < 0.01 µM (active) | < 0.0001 µM (active) | < 0.01 µM (active) | < 0.0001 µM (active) | < 0.01 µM (active) | < 0.01 µM (active) | < 0.01 µM (active) | < 0.01 µM (active) | < 0.0187 µM (active) | < 0.01 µM (active)
